Data as given in article PMC5467912, “Asymmetric regulation of quorum-sensing receptors drives autoinducer-specific gene expression programs in Vibrio cholerae” (PLoS Genetics, 2017).
Values joined by “and” are separate entries in the source; they are usually repeats but may differ in a detail not shown here. Equal values may be shown once. Read-outs that look alike come from different tables or passages of the source.

Experiments:
hapA = assay type: cell-based; details: ΔcqsA ΔluxS strain, HCD
CqsS D618N = system: T1, CqsS D618N; assay: CqsS D618N autophosphorylation in inverted membrane vesicles, 32P (Fig 7A); assay type: biochemical, Vibrio cholerae
T1 construct: made in house; host or cells: E. coli C43 (DE3), pET21b; used as inverted membrane vesicles

CqsS C170Y = assay: CqsS-dependent repression of qrr4-gfp, CqsS C170Y (Fig 7C); assay type: cell-based, Vibrio cholerae; details: Treatment 1uM; CqsS mutant C170Y
CqsS [1] = molecular target: T2, CqsS (Vibrio cholerae serotype O1, UniProt Q9KM66); assay: cell-based; details: for Light production: strain WN1102; for RLU: Strain WN1102
T2 construct: endogenous in cells; host or cells: V. cholerae WN1102 (ΔcqsA ΔluxQ/pBB1), derived from C6706str2

CqsS [2] = assay type: cell-based; details: for CqsS Dimers: LuxS-CqsA-, AI-2 1 μM, CAI-1 5 μM, single replicates
WT CqsS = system: T3, WT CqsS; assay type: cell-based; details: Treatment 1uM
T3 construct: made in house; host or cells: E. coli C43 (DE3), pET21b; used as inverted membrane vesicles

[3] = system: QS-controlled luxCDABE operon; assay type: cell-based; details: for Light production: LuxS-CqsA- +CAI-1 5 μM; for RLU: Strain AH371
CqsS F162A = assay: CqsS-dependent repression of qrr4-gfp, CqsS F162A (Fig 7C); assay type: cell-based, Vibrio cholerae; details: Treatment 1uM; CqsS mutant F162A
[4] = system: QS-controlled luxCDABE operon; assay type: cell-based

SMILES: CCCCCCCCCC(=O)[C@@H](O)CC [CAI-1, (S)-3-hydroxytridecan-4-one]
- increase in hapA expression (hapA): over 50 fold
- % Total Phosphorylation (CqsS D618N; agonist 0.32 uM): 95.2512% and 79.8407% and 88.8244% and 85.3997% and 90.9887%
- % Total Phosphorylation (CqsS D618N; agonist 0.64 uM): 113.145% and 87.5268% and 103.834% and 64.446% and 85.0733% and 67.8245%
- % Total Phosphorylation (CqsS D618N; agonist 1.28 uM): 54.1919% and 72.6606% and 66.4662% and 63.8968% and 70.5235% and 55.5883%
- % Total Phosphorylation (CqsS D618N; agonist 6.4 uM): 11.8696% and 10.1556% and 13.3867% and 14.118% and 13.0644% and 14.5467%
- % Total Phosphorylation (CqsS D618N; agonist 8 uM): 8.344% and 11.4086% and 9.0715% and 10.6327% and 12.5012% and 11.7307%
- % Total Phosphorylation (CqsS D618N; agonist 10 uM): 12.437% and 6.165% and 12.0698% and 9.199% and 10.7397% and 9.533%
- % Total Phosphorylation (CqsS D618N; agonist 15 uM): 6.329% and 4.395% and 5.101% and 4.035% and 5.504% and 5.125%
- Qrr4-GFP/OD600 (CqsS C170Y): 23520280 and 22034610 and 28130220
- Light production (CqsS [1]; Agonist 0.0119209 nM): 12889 RLU and 8888.9 RLU and 6804.1 RLU
- Light production (CqsS [1]; Agonist 0.0476837 nM): 14371 RLU and 11556 RLU and 14048 RLU
- Light production (CqsS [1]; Agonist 0.190735 nM): 19162 RLU and 15751 RLU and 14725 RLU
- Light production (CqsS [1]; Agonist 0.762939 nM): 27416 RLU and 24171 RLU and 21376 RLU
- Light production (CqsS [1]; Agonist 3.05176 nM): 42278 RLU and 41455 RLU and 42909 RLU
- Light production (CqsS [1]; Agonist 12.207 nM): 141302 RLU and 122637 RLU and 126432 RLU
- Light production (CqsS [1]; Agonist 48.8281 nM): 2056727 RLU and 1989392 RLU and 2067742 RLU
- Light production (CqsS [1]; Agonist 195.312 nM): 21777960 RLU and 20597350 RLU and 20387370 RLU
- Light production (CqsS [1]; Agonist 781.25 nM): 68306990 RLU and 63315740 RLU and 60445960 RLU
- Light production (CqsS [1]; Agonist 3125 nM): 107684000 RLU and 96526460 RLU and 89440220 RLU
- Light production (CqsS [1]; Agonist 12500 nM): 110460000 RLU and 105858400 RLU and 100769600 RLU
- Light production (CqsS [1]; Agonist 50000 nM): 108923600 RLU and 92244980 RLU and 92565550 RLU
- RLU (CqsS [1]; agonist 0.0119209 nM): 6.03E+03 RLU and 5.88E+03 RLU and 4.06E+03 RLU
- RLU (CqsS [1]; agonist 0.190735 nM): 1.26E+04 RLU and 1.57E+04 RLU and 1.42E+04 RLU
- RLU (CqsS [1]; agonist 0.762939 nM): 2.01E+04 RLU and 2.32E+04 RLU and 2.34E+04 RLU
- RLU (CqsS [1]; agonist 3.05176 nM): 2.95E+04 RLU and 3.11E+04 RLU and 2.71E+04 RLU
- RLU (CqsS [1]; agonist 12.207 nM): 3.67E+04 RLU and 5.35E+04 RLU and 5.22E+04 RLU
- RLU (CqsS [1]; agonist 48.8281 nM): 1.20E+05 RLU and 1.71E+05 RLU and 1.56E+05 RLU
- RLU (CqsS [1]; agonist 195.312 nM): 4.96E+06 RLU and 5.24E+06 RLU and 3.77E+06 RLU
- RLU (CqsS [1]; agonist 781.25 nM): 5.10E+07 RLU and 6.40E+07 RLU and 5.48E+07 RLU
- RLU (CqsS [1]; agonist 3125 nM): 1.12E+08 RLU and 1.35E+08 RLU and 1.31E+08 RLU
- RLU (CqsS [1]; agonist 12500 nM): 1.34E+08 RLU and 1.62E+08 RLU and 1.58E+08 RLU
- RLU (CqsS [1]; agonist 50000 nM): 1.28E+08 RLU and 1.53E+08 RLU and 1.57E+08 RLU
- CqsS Dimers (CqsS [2]; HCD (OD600 = 2.0)): 114.596 and 64.6161 and 71.1979 and 202.196 and 256.645 and 84.2562 and 79.0603 and 97.3422
- CqsS Dimers (CqsS [2]; LCD (OD600 = 0.2)): 74.4347 and 10.9291 and 11.9686 and 59.9755 and 52.7962 and 18.8946 and 26.4401 and 52.893
- CqsS protein levels (CqsS [2]; ΔcqsA ΔluxS mutant, LCD and HCD): increased CqsS protein levels to nearly that present in the WT
- Qrr4-GFP/OD600 (WT CqsS): 1736969 and 1605333 and 1622571
- Light production ([3]; OD600 0.0198): 6464646 RLU
- Light production ([3]; OD600 0.0375): 5626666 RLU
- Light production ([3]; OD600 0.256): 957031 RLU
- Light production ([3]; OD600 0.663): 472096 RLU
- Light production ([3]; OD600 0.982): 378819 RLU
- Light production ([3]; OD600 1.101): 133515000 RLU
- RLU ([3]; agonist 0.0476837 nM): 5.19E+03 RLU and 2.61E+03 RLU
- RLU ([3]; agonist 0.762939 nM): 2.58E+03 RLU and 5.16E+03 RLU and 2.67E+03 RLU
- RLU ([3]; agonist 3.05176 nM): 5.00E+03 RLU and 2.56E+03 RLU and 2.61E+03 RLU
- RLU ([3]; agonist 48.8281 nM): 1.58E+04 RLU and 1.61E+04 RLU and 1.60E+04 RLU
- RLU ([3]; agonist 195.312 nM): 2.98E+05 RLU and 2.86E+05 RLU and 2.15E+05 RLU
- RLU ([3]; agonist 781.25 nM): 3.60E+06 RLU and 4.20E+06 RLU and 3.87E+06 RLU
- RLU ([3]; agonist 3125 nM): 1.30E+07 RLU and 1.41E+07 RLU and 1.40E+07 RLU
- RLU ([3]; agonist 12500 nM): 1.88E+07 RLU and 2.11E+07 RLU and 2.10E+07 RLU
- RLU ([3]; agonist 50000 nM): 1.88E+07 RLU and 1.96E+07 RLU and 1.89E+07 RLU
- increase in light production ([3]; saturating autoinducer, HCD, vs untreated ΔcqsA ΔluxS): 100,000 fold
- Qrr4-GFP/OD600 (CqsS F162A): 18299880 and 17516110 and 17110990
- Light production ([4]; 5nM CAI-1, OD600 0.005): 81418.9 RLU and 88175.7 RLU
- Light production ([4]; 5nM CAI-1, OD600 0.0328): 3079268 RLU and 3871951 RLU
- Light production ([4]; 5nM CAI-1, OD600 0.1753): 587564 RLU
- Light production ([4]; 5nM CAI-1, OD600 0.3442): 310866 RLU and 554910 RLU
- Light production ([4]; 5nM CAI-1, OD600 0.801): 179775 RLU and 309613 RLU
- Light production ([4]; 5nM CAI-1, OD600 1.26): 81746 RLU and 99206.4 RLU
- Light production ([4]; 5nM CAI-1, OD600 1.834): 45747000 RLU and 48964010 RLU
- Light production ([4]; 5nM CAI-1, OD600 2.816): 21306820 RLU and 22194600 RLU
- Light production ([4]; 5nM CAI-1, OD600 3.828): 7523511 RLU and 7967607 RLU
- Light production ([4]; 10nM CAI-1, OD600 0.005): 81418.9 RLU and 88175.7 RLU
- Light production ([4]; 10nM CAI-1, OD600 0.0309): 3915858 RLU and 6084143 RLU
